Assay results published in publication PMC7998250, “Temperate Zone Plant Natural Products—A Novel Resource for Activity against Tropical Parasitic Diseases” (Pharmaceuticals, 2021).

Key:
HepG2 cells = test: Cytotoxicity CC50, HepG2, Alamar Blue; conditions: read-out: HepG2 CC50; 48 h
How it was run: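 Human hepatoma cells seeded at 1 × 10^5 cells/mL with two-fold serial compound dilutions, incubated 48 h at 37 °C, 5% CO2 in DMEM/10% FBS. Viability read by Alamar Blue. CC50 estimated from viability normalised to untreated controls versus log concentration.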

[1] = tested on: WT L. mexicana procyclic promastigotes; test: EC50 in WT L. mexicana promastigotes; assay type: cell-based; conditions: Leishmania mexicana, read-out: EC50 in WT promastigotes
Experimental: (§1) A 700022-resistant line of L. mexicana (r22) was generated using a previously reported method (Figure S3). […] All leishmanicidal sterols identified were assayed against r22 after 8 weeks of 700022 pressure and cross-resistance was found against all four compounds, each with a similar resistance index of between 4–5 (Figure 6c). Following 28 weeks of selection, the morphology of the r22 promastigotes was compared to that of WT (Figure 6d). […] The body area of both promastigotes and amastigotes was also assessed, noting a small (c 20%) decrease in the body area of r22 parasites compared to WT strains (Figure S3).
(§2) L. mexicana parasites were grown in increasing concentrations of 700022 in a stepwise manner, as previously described. […] A dose response assay of the newly selected promastigotes was completed as stated above, with the exception of the seeding density of 1 × 10^5 cells/mL. At this point, the drug pressure was increased to the concentration of the new EC50 value.

[2] = tested on: L. mexicana r22 promastigotes; test: EC50 in 700022-resistant L. mexicana (r22) promastigotes; assay type: cell-based; conditions: Leishmania mexicana, read-out: EC50 in r22 promastigotes, after 28 weeks of 700022 selection
Experimental: as §1, §2

[3] = tested on: L. mexicana intramacrophage amastigotes; test: L. mexicana intramacrophage assay (NanoLuc PEST strain in THP-1); assay type: cell-based, Leishmania mexicana
Excerpt: Figure S4: Leishmania intramacrophage assays. […] Data represents the mean and standard deviation (n=4). B Average number of parasites per macrophage in the same experiment as A. A Kruskal-Wallis test followed by Dunn’s multiple comparison test was used to determine a significant difference (p<0.05) of each treatment to the untreated control and have been indicated with those being significant marked with an asterix. C Comparing 700022 activity between axenic amastigotes (red) and intramacrophage amastigotes (blue). Concentration–response curves for compound 700022 against: intracellular L. mexicana NanoLuc-PEST-transgenic line (blue), axenic amastigotes of NanoLuc-PEST-transgenic line (red) as well as the human cell lines HepG2 (green) and THP-1 (black). The data for the intracellular L. mexicana NanoLuc-PEST-transgenic line represent one biological repeat of three technical repeats.

[4] = factor, relative to intramacrophage amastigote EC50

## C=C1C(=O)OC2CC(C)C3C=CC(=O)C3(C)C(OC(C)=O)C12 (stereo not shown) [Compound 701155]
HepG2 cells
  CC50: 1.1 µM

## CC1=CC(O)(CC(C)C2(C)CC=C3C4=CCC5C(C)(C)C(O)CCC5(C)C4CCC32C)OC1=O (stereo not shown) [Compound 700022]
[1]
  EC50: 11.5 µM
[2]
  EC50: 85.6 µM
[3]; Leishmania mexicana, L. mexicana NanoLuc PEST strain in THP-1
  EC50: 10.7 µM
[3]; [4]
  selectivity over HepG2: 2.7
  selectivity over THP-1: 1.6

## C=C1C(=O)OC2CC(C)C3C=CC(=O)C3(C)C(OC(=O)C(C)CC)C12 (stereo not shown) [Compound 701158]
HepG2 cells
  CC50: 0.81 µM
